# In patent publication US5204352A, “Compounds exhibiting anti-parasitic activity and a method for their use” (The United States of America as represented by the …, priority 1987, dated 1993):
# Experiments:
# Trypanosoma rhodesiense [1] = experiment: In vivo trypanocidal activity in infected mice (protocol based on Rane et al.); design: Activity at dosage, value in parentheses (increase in survival): unit not given here; details: for Activity at dosage (C = Cures) / Activity at dosage, value in parentheses (increase in survival): peritoneal (Table 2)
# Protocol: The compounds of the present invention were evaluated biologically in vivo with groups of 5 mice at various dose levels. Unless otherwise indicated, the data are for subcutaneous administration. Dose levels marked with an asterisk are for peritoneal administration in a HEC+T medium. In addition, Table 2 present results of peritoneal administration with substituted quanylhydrazones. The biological evaluation was done according to a standard protocol based on the method described by Rane et al., Amer. J. Trop. Med Hyg. 25:395 (1976). […]
# Trypanosoma rhodesiense [2] = details: previously known bis-amidine and bis-guanylhydrazones; cited from earlier work
# [3] = 13.3* mg/kg, peritoneal in HEC+T medium (Table I)
# [4] = 26* mg/kg, peritoneal in HEC+T medium (Table I)
# [5] = 106* mg/kg, peritoneal in HEC+T medium (Table I)
# [6] = 424* mg/kg, peritoneal in HEC+T medium (Table I)
smiles,measurement,setting,value
C[n+]1c(-c2ccc(C=NNC3=NCCN3)cc2)cn2ccccc21 [BK50311],Increase in survival,"Trypanosoma rhodesiense [1]; 0.42 mg/kg, subcutaneous",6.6 days
same,"Trypanocidal activity, cures","Trypanosoma rhodesiense [1]; 0.42 mg/kg, subcutaneous",2/5
same,Activity at dosage (C = Cures),Trypanosoma rhodesiense [1]; 0.8 mg/kg,INAC
same,Increase in survival,"Trypanosoma rhodesiense [1]; 0.83 mg/kg, subcutaneous",1.5 days
same,"Trypanocidal activity, cures","Trypanosoma rhodesiense [1]; 0.83 mg/kg, subcutaneous",8/10
same,Increase in survival,"Trypanosoma rhodesiense [1]; 1.66 mg/kg, subcutaneous",22.0 days
same,"Trypanocidal activity, cures","Trypanosoma rhodesiense [1]; 1.66 mg/kg, subcutaneous",9/10
same,"Activity at dosage, value in parentheses (increase in survival)",Trypanosoma rhodesiense [1]; 1.7 mg/kg,1.0
same,"Activity at dosage, value in parentheses (increase in survival)",Trypanosoma rhodesiense [1]; 3.3 mg/kg,1.6
same,"Trypanocidal activity, cures","Trypanosoma rhodesiense [1]; 3.3 mg/kg, subcutaneous",5/5
same,Increase in survival,"Trypanosoma rhodesiense [1]; 6.6 mg/kg, subcutaneous",10.0 days
same,"Trypanocidal activity, cures","Trypanosoma rhodesiense [1]; 6.6 mg/kg, subcutaneous",3/5
same,"Activity at dosage, value in parentheses (increase in survival)",Trypanosoma rhodesiense [1]; 6.7 mg/kg,7.7
same,"Activity at dosage, value in parentheses (increase in survival)",Trypanosoma rhodesiense [1]; 13 mg/kg,9.0
same,"Trypanocidal activity, cures","Trypanosoma rhodesiense [1]; 13.3 mg/kg, subcutaneous",10/10
same,"Activity at dosage, value in parentheses (increase in survival)",Trypanosoma rhodesiense [1]; 26 mg/kg,13.5
same,Increase in survival,Trypanosoma rhodesiense [1]; [3],9.0 days
same,"Trypanocidal activity, cures",Trypanosoma rhodesiense [1]; [3],9/10
same,Increase in survival,Trypanosoma rhodesiense [1]; [4],13.5 days
same,"Trypanocidal activity, cures",Trypanosoma rhodesiense [1]; [4],13/15
same,"Trypanocidal activity, cures","Trypanosoma rhodesiense [1]; 53* mg/kg, peritoneal in HEC+T medium (Table I)",5/5
same,"Trypanocidal activity, cures",Trypanosoma rhodesiense [1]; [5],10/10
same,"Trypanocidal activity, cures","Trypanosoma rhodesiense [1]; 212* mg/kg, peritoneal in HEC+T medium (Table I)",5/5
same,"Trypanocidal activity, cures",Trypanosoma rhodesiense [1]; [6],0/10
C[n+]1c(-c2ccc(C=NNC(=N)N3CCOCC3)cc2)cn2ccccc21 [BK51890],"Activity at dosage, value in parentheses (increase in survival)",Trypanosoma rhodesiense [1]; 0.8 mg/kg,1.7
same,"Activity at dosage, value in parentheses (increase in survival)",Trypanosoma rhodesiense [1]; 1.7 mg/kg,10.9
same,"Activity at dosage, value in parentheses (increase in survival)",Trypanosoma rhodesiense [1]; 26 mg/kg,5.9
same,Increase in survival,"Trypanosoma rhodesiense [1]; 1.66* mg/kg, peritoneal in HEC+T medium (Table I)",10.9 days
same,"Trypanocidal activity, cures","Trypanosoma rhodesiense [1]; 3.3* mg/kg, peritoneal in HEC+T medium (Table I)",5/5
same,"Trypanocidal activity, cures","Trypanosoma rhodesiense [1]; 6.6* mg/kg, peritoneal in HEC+T medium (Table I)",5/5
same,"Trypanocidal activity, cures","Trypanosoma rhodesiense [1]; 13* mg/kg, peritoneal in HEC+T medium (Table I)",5/5
same,"Trypanocidal activity, cures",Trypanosoma rhodesiense [1]; [4],9/10
same,"Trypanocidal activity, cures",Trypanosoma rhodesiense [1]; [5],5/5
same,"Trypanocidal activity, cures",Trypanosoma rhodesiense [1]; [6],5/5
C[n+]1c(-c2ccc(C=NNC(=N)N)cc2)c(Br)n2ccccc21 [BK51907],Activity at dosage (C = Cures),Trypanosoma rhodesiense [1]; 0.8 mg/kg,INAC
same,Activity at dosage (C = Cures),Trypanosoma rhodesiense [1]; 1.7 mg/kg,INAC
same,"Activity at dosage, value in parentheses (increase in survival)",Trypanosoma rhodesiense [1]; 3.3 mg/kg,1.2
same,"Activity at dosage, value in parentheses (increase in survival)",Trypanosoma rhodesiense [1]; 6.7 mg/kg,3.8
same,"Activity at dosage, value in parentheses (increase in survival)",Trypanosoma rhodesiense [1]; 13 mg/kg,7.0
same,"Activity at dosage, value in parentheses (increase in survival)",Trypanosoma rhodesiense [1]; 26 mg/kg,10.0
same,"Activity at dosage, value in parentheses (increase in survival)",Trypanosoma rhodesiense [1]; 424 mg/kg,2.0
Cc1ccc2n(c1)cc(-c1ccc(C=NNc3nc[nH]n3)cc1)[n+]2C [BK51961],Activity at dosage (C = Cures),Trypanosoma rhodesiense [1]; 13 mg/kg,INAC
same,Activity at dosage (C = Cures),Trypanosoma rhodesiense [1]; 26 mg/kg,INAC
same,Activity at dosage (C = Cures),Trypanosoma rhodesiense [1]; 53 mg/kg,INAC
same,"Activity at dosage, value in parentheses (increase in survival)",Trypanosoma rhodesiense [1]; 106 mg/kg,5.5
same,"Activity at dosage, value in parentheses (increase in survival)",Trypanosoma rhodesiense [1]; 212 mg/kg,6.3
same,"Activity at dosage, value in parentheses (increase in survival)",Trypanosoma rhodesiense [1]; 424 mg/kg,6.0
C[n+]1c(-c2ccc(C=NNC3=NCCN3)cc2)cn2ccsc21 [BK62620],Increase in survival,"Trypanosoma rhodesiense [1]; 13.3 mg/kg, subcutaneous",28.0 days
same,"Trypanocidal activity, cures","Trypanosoma rhodesiense [1]; 13.3 mg/kg, subcutaneous",9/10
C[n+]1c(COc2ccc(C(=N)N)cc2)cn2ccccc21 [BK65330],Increase in survival,"Trypanosoma rhodesiense [1]; 13.3 mg/kg, subcutaneous",12 days
same,"Trypanocidal activity, cures","Trypanosoma rhodesiense [1]; 13.3 mg/kg, subcutaneous",3/5
C[n+]1c(COc2ccc(C=NNC(=N)NO)cc2)cn2ccccc21 [BK75087],Increase in survival,"Trypanosoma rhodesiense [1]; 0.2 mg/kg, subcutaneous",5.9 days
same,"Trypanocidal activity, cures","Trypanosoma rhodesiense [1]; 0.2 mg/kg, subcutaneous",2/5
same,Increase in survival,"Trypanosoma rhodesiense [1]; 0.4 mg/kg, subcutaneous",10 days
same,"Trypanocidal activity, cures","Trypanosoma rhodesiense [1]; 0.4 mg/kg, subcutaneous",3/5
same,"Trypanocidal activity, cures","Trypanosoma rhodesiense [1]; 0.8 mg/kg, subcutaneous",10/10
same,"Trypanocidal activity, cures","Trypanosoma rhodesiense [1]; 6.6 mg/kg, subcutaneous",5/5
CCN=C(NCC)NN=Cc1ccc(OCc2cn3ccccc3[n+]2C)cc1 [BL03933],Increase in survival,"Trypanosoma rhodesiense [1]; 1.6 mg/kg, subcutaneous",6.3 days
same,"Trypanocidal activity, cures","Trypanosoma rhodesiense [1]; 1.6 mg/kg, subcutaneous",7/10
same,"Trypanocidal activity, cures","Trypanosoma rhodesiense [1]; 3.3 mg/kg, subcutaneous",5/5
same,"Trypanocidal activity, cures","Trypanosoma rhodesiense [1]; 6.6 mg/kg, subcutaneous",5/5
C[n+]1ccccc1COc1ccc(C=NNC2=NCCCN2)cc1 [BL07646],Increase in survival,"Trypanosoma rhodesiense [1]; 1.6 mg/kg, subcutaneous",3.9 days
same,"Trypanocidal activity, cures","Trypanosoma rhodesiense [1]; 1.6 mg/kg, subcutaneous",1/10
same,Increase in survival,"Trypanosoma rhodesiense [1]; 6.6 mg/kg, subcutaneous",9.9 days
same,"Trypanocidal activity, cures","Trypanosoma rhodesiense [1]; 6.6 mg/kg, subcutaneous",3/5
same,Increase in survival,"Trypanosoma rhodesiense [1]; 13 mg/kg, subcutaneous",4.0 days
same,"Trypanocidal activity, cures","Trypanosoma rhodesiense [1]; 13 mg/kg, subcutaneous",9/10
C[n+]1c(-c2ccc(C=CC=NNC(=N)N)cc2)cn2ccccc21 [BL07815],"Trypanocidal activity, cures","Trypanosoma rhodesiense [1]; 1.6 mg/kg, subcutaneous",0/10
same,"Trypanocidal activity, cures","Trypanosoma rhodesiense [1]; 3.3 mg/kg, subcutaneous",5/5
same,"Trypanocidal activity, cures","Trypanosoma rhodesiense [1]; 6.6 mg/kg, subcutaneous",5/5
same,"Trypanocidal activity, cures","Trypanosoma rhodesiense [1]; 13 mg/kg, subcutaneous",10/10
same,"Trypanocidal activity, cures","Trypanosoma rhodesiense [1]; 26 mg/kg, subcutaneous",15/15
same,"Trypanocidal activity, cures","Trypanosoma rhodesiense [1]; 53 mg/kg, subcutaneous",5/5
same,"Trypanocidal activity, cures","Trypanosoma rhodesiense [1]; 106 mg/kg, subcutaneous",10/10
C[n+]1c(-c2ccc(C=CC=NNC3=NCCCN3)cc2)cn2ccccc21 [BL07824],"Trypanocidal activity, cures","Trypanosoma rhodesiense [1]; 3.3 mg/kg, subcutaneous",5/5
same,"Trypanocidal activity, cures","Trypanosoma rhodesiense [1]; 6.6 mg/kg, subcutaneous",5/5
same,"Trypanocidal activity, cures","Trypanosoma rhodesiense [1]; 13 mg/kg, subcutaneous",5/5
C[n+]1c(C=Cc2ccc(C=NNC(=N)N)cc2)cn2ccccc21 [BL09462],Increase in survival,"Trypanosoma rhodesiense [1]; 0.1 mg/kg, subcutaneous",5.2 days
same,"Trypanocidal activity, cures","Trypanosoma rhodesiense [1]; 0.1 mg/kg, subcutaneous",6/10
same,"Trypanocidal activity, cures","Trypanosoma rhodesiense [1]; 0.2 mg/kg, subcutaneous",5/5
same,"Trypanocidal activity, cures","Trypanosoma rhodesiense [1]; 0.8 mg/kg, subcutaneous",10/10
Cn1c(COc2ccc(C=NNC3=NCCN3)cc2)[n+](C)c2ccccc21 [BL10018],Increase in survival,"Trypanosoma rhodesiense [1]; 0.4 mg/kg, subcutaneous",6.8 days
same,"Trypanocidal activity, cures","Trypanosoma rhodesiense [1]; 0.4 mg/kg, subcutaneous",3/5
same,"Trypanocidal activity, cures","Trypanosoma rhodesiense [1]; 1.6 mg/kg, subcutaneous",10/10
same,"Trypanocidal activity, cures","Trypanosoma rhodesiense [1]; 6.6 mg/kg, subcutaneous",5/5
C[n+]1cccc(COc2ccc(C=NNC(=N)N3CCCC3)cc2)c1 [BL10027],Increase in survival,"Trypanosoma rhodesiense [1]; 0.8 mg/kg, subcutaneous",5.2 days
same,"Trypanocidal activity, cures","Trypanosoma rhodesiense [1]; 0.8 mg/kg, subcutaneous",7/10
same,"Trypanocidal activity, cures","Trypanosoma rhodesiense [1]; 3.3 mg/kg, subcutaneous",5/5
same,"Trypanocidal activity, cures","Trypanosoma rhodesiense [1]; 13 mg/kg, subcutaneous",5/5
C[n+]1c(C=Cc2ccc(C=NNC3=NCCCN3)cc2)cn2ccccc21 [BL11202],"Trypanocidal activity, cures","Trypanosoma rhodesiense [1]; 0.4 mg/kg, subcutaneous",5/5
same,Increase in survival,"Trypanosoma rhodesiense [1]; 1.6 mg/kg, subcutaneous",6.8 days
same,"Trypanocidal activity, cures","Trypanosoma rhodesiense [1]; 1.6 mg/kg, subcutaneous",9/10
same,"Trypanocidal activity, cures","Trypanosoma rhodesiense [1]; 6.6 mg/kg, subcutaneous",5/5
same,"Trypanocidal activity, cures","Trypanosoma rhodesiense [1]; 26 mg/kg, subcutaneous",15/15
C[n+]1ccc(COc2ccc(C=NNC3=NCCN3)cc2)cc1 [BL12129],Increase in survival,"Trypanosoma rhodesiense [1]; 3.3 mg/kg, subcutaneous",6.8 days
same,"Trypanocidal activity, cures","Trypanosoma rhodesiense [1]; 3.3 mg/kg, subcutaneous",1/5
same,Increase in survival,"Trypanosoma rhodesiense [1]; 13 mg/kg, subcutaneous",5.0 days
same,"Trypanocidal activity, cures","Trypanosoma rhodesiense [1]; 13 mg/kg, subcutaneous",8/10
C[n+]1c(C=Cc2ccc(C=NNC(=N)N3CCCC3)cc2)cn2ccccc21 [BL12165],Increase in survival,"Trypanosoma rhodesiense [1]; 1.6 mg/kg, subcutaneous",5.2 days
same,"Trypanocidal activity, cures","Trypanosoma rhodesiense [1]; 1.6 mg/kg, subcutaneous",6/10
same,Increase in survival,"Trypanosoma rhodesiense [1]; 3.3 mg/kg, subcutaneous",12.3 days
same,"Trypanocidal activity, cures","Trypanosoma rhodesiense [1]; 3.3 mg/kg, subcutaneous",2/5
same,"Trypanocidal activity, cures","Trypanosoma rhodesiense [1]; 13 mg/kg, subcutaneous",10/10
same,"Trypanocidal activity, cures","Trypanosoma rhodesiense [1]; 26 mg/kg, subcutaneous",15/15
Cn1cc[n+](C)c1C=Cc1ccc(C=NNC2=NCCCN2)cc1 [BL21584],"Trypanocidal activity, cures","Trypanosoma rhodesiense [1]; 6.6 mg/kg, subcutaneous",5/5
same,"Trypanocidal activity, cures","Trypanosoma rhodesiense [1]; 13 mg/kg, subcutaneous",10/10
CCN=C(NCC)NN=Cc1ccc(OCc2n(C)cc[n+]2C)cc1 [BL28038],"Trypanocidal activity, cures","Trypanosoma rhodesiense [1]; 13 mg/kg, subcutaneous",3/5
"N=C(N)c1ccc(-c2cc3ccc(C(=N)N)cc3[nH]2)cc1 [DAPI, 2-phenylindole-5-4'-bis-carboxamidine]",Trypanocidal activity,Trypanosoma rhodesiense [2],show trypanocidal activity
N=C(N)c1cccc(NC(=O)Nc2cccc(C(=N)N)c2)c1 [aminocarbilide],Trypanocidal activity,Trypanosoma rhodesiense [2],show trypanocidal activity
N=C(N)c1ccc(N=NNc2ccc(C(=N)N)cc2)cc1 [berenil],Trypanocidal activity,Trypanosoma rhodesiense [2],show trypanocidal activity
CC(=NNC(=N)N)c1cccc(C(C)=NNC(=N)N)c1 [m-diacetylbenzene-bis-guanylhydrazone],Trypanocidal activity,Trypanosoma rhodesiense [2],show trypanocidal activity
N=C(N)c1ccc(OCCCCCOc2ccc(C(=N)N)cc2)cc1 [pentamidine],Trypanocidal activity,Trypanosoma rhodesiense [2],show trypanocidal activity
